Test results: US6737383B1, “Herbicidal oxadiazolidines” (priority 1999, dated 2004)

Tests used:
goosegrass = assay: Test D goosegrass; format: in vivo, Eleusine indica; settings: Preemergence, 0 to 100 scale
In short: (§1)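 Seeds were sown in greenhouse pots, one species per pot or compartment. Compounds were in a non-phytotoxic solvent mixture with surfactant; preemergence applications went on the sandy loam surface within one day of planting. Injury was rated visually after 14 to 21 days, 0 (none) to 100 (complete control).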

common ragweed = assay: Test D common ragweed; format: in vivo, Ambrosia elatior; settings: Preemergence, 0 to 100 scale
From the text: (§2) Seeds, tubers, or plant parts of Alexandergrass (Brachiaria plantaginea), bermuda-grass (Cynodon dactylon), common pursiane (Portulaca oleracea), common ragweed (Ambrosia elatior), common groundsel (Senecio vulgaris), dallisgrass (Paspalum dilatatum), goosegrass (Eleusine indica), guineagrass (Panicum maximum), itchgrass (Rottboellia exaltata), Johnson grass (Sorghum halepense), large crabgrass (Digitaria sanguinalis), pitted morningglory (Ipomoea lacunosa), purple nutsedge (Cyperus rotundus), sandbur (Cenchrus echinatus), sourgrass (Trichachne insularis), Spanishneedles (Bidens bipinnata), surinam grass (Brachiaria decumbens) and tall mallow (Malva sylvestris) were planted into greenhouse pots of flats containing greenhouse planting medium. Plant species were grown in separate pots or individual compartments. Preemergence applications were made within one day of planting the seed or plant part.
(§3) Test chemicals were formulated in a non-phytotoxic solvent mixture which included a surfactant and applied preemergence to the surface of the pot containing seeds in a sandy loam soil. Untreated control pots and treated pots were placed in the greenhouse for growth and visually evaluated for injury 14 to 21 days after herbicide application. Plant response ratings, summarized in Table C, are based on a 0 to 100 scale where 0 is no injury and 100 is complete control. A dash (−) response means no test result.

guineagrass = assay: Test D guineagrass; format: in vivo, Panicum maximum; settings: Preemergence, 0 to 100 scale
From the text: as §2, §3

large crabgrass = assay: Test D large crabgrass; format: in vivo, Digitaria sanguinalis; settings: Preemergence, 0 to 100 scale
In short: as §1

tall mallow = assay: Test D tall mallow; format: in vivo, Malva sylvestris; settings: Preemergence, 0 to 100 scale
From the text: as §2, §3

itchgrass = assay: Test D itchgrass; format: in vivo, Rottboellia exaltata; settings: Preemergence, 0 to 100 scale
From the text: as §2, §3

Alexandergrass = assay: Test D Alexandergrass; format: in vivo, Brachiaria plantaginea; settings: Preemergence, 0 to 100 scale
In short: as §1

black nightshade = assay: Test E black nightshade; format: in vivo, Solanum nigra; settings: Preemergence
redroot pigweed = assay: Test E redroot pigweed; format: in vivo, Amaranthus retroflexus; settings: Preemergence
jointed goatgrass = assay: Test E jointed goatgrass; format: in vivo, Aegilops cylindrica; settings: Preemergence
[1] = Rate 32 g/ha, 0 no injury, 100 complete control
[2] = Rate 64 g/ha, 0 no injury, 100 complete control
[3] = Rate 125 g/ha, 0 no injury, 100 complete control
[4] = Rate 16 g/ha, 0 no injury, 100 complete control
[5] = Rate 62 g/ha, 0 to 100 scale, 0 no effect, 100 complete control
[6] = Rate 125 g/ha, 0 to 100 scale (0 no effect, 100 complete control)
[7] = Rate 500 g/ha, 0 to 100 scale where 0 is no effect and 100 is complete control

Cc1cccc(C)c1-n1c(=O)on(C(=O)N(c2ccc(F)cc2F)C(C)C)c1=O [Compound 28]
Plant response rating, Goosegrass (goosegrass; [1]): 0
Plant response rating, Goosegrass (goosegrass; [2]): 85
Plant response rating, Goosegrass (goosegrass; [3]): 98
Plant response rating, Goosegrass (goosegrass; Rate 250 g/ha): 100
Plant response rating, C. ragweed (common ragweed; [1]): 0
Plant response rating, C. ragweed (common ragweed; [2]): 0
Plant response rating, C. ragweed (common ragweed; [3]): 0
Plant response rating, C. ragweed (common ragweed; Rate 250 g/ha): 0
Plant response rating, Guineagrass (guineagrass; [1]): 40
Plant response rating, Guineagrass (guineagrass; [2]): 65
Plant response rating, Guineagrass (guineagrass; [3]): 75
Plant response rating, Guineagrass (guineagrass; Rate 250 g/ha): 98
Plant response rating Large crabgrass (large crabgrass; [1]): 85
Plant response rating Large crabgrass (large crabgrass; [2]): 98
Plant response rating Large crabgrass (large crabgrass; [3]): 100
Plant response rating Large crabgrass (large crabgrass; Rate 250 g/ha): 100
Plant response rating, Tall Mallow (tall mallow; [1]): 0
Tall Mallow plant response rating (tall mallow; [2]): 0
Tall Mallow plant response rating (tall mallow; [3]): 0
Plant response rating, Tall Mallow (tall mallow; Rate 250 g/ha): 0
Plant response rating, Itchgrass (itchgrass; [1]): 0
Plant response rating, Itchgrass (itchgrass; [2]): 20
Plant response rating, Itchgrass (itchgrass; [3]): 40
Plant response rating, Itchgrass (itchgrass; Rate 250 g/ha): 40
Plant response rating, Alexandergrass (Alexandergrass; [1]): 0
Plant response rating, Alexandergrass (Alexandergrass; [2]): 0
Plant response rating, Alexandergrass (Alexandergrass; [3]): 60
Plant response rating, Alexandergrass (Alexandergrass; Rate 250 g/ha): 75

CCn1c(=O)on(C(=O)N(c2ccc(F)cc2)C(C)C)c1=O [Compound 107]
Plant response rating, Goosegrass (goosegrass; [4]): 85
Plant response rating, Goosegrass (goosegrass; [1]): 98
Plant response rating, Goosegrass (goosegrass; [2]): 100
Plant response rating, Goosegrass (goosegrass; [3]): 100
Plant response rating, Goosegrass (goosegrass; Rate 250 g/ha): 100
Plant response rating, Goosegrass (goosegrass; Rate 500 g/ha): 100
Plant response rating, Blk nightshade (black nightshade; [5]): 70
Plant response rating, Blk nightshade (black nightshade; [6]): 95
Plant response rating, Blk nightshade (black nightshade; Rate 250 g/ha, 0 to 100 scale): 95
Plant response rating, Redroot pigweed (redroot pigweed; [5]): 100
Plant response rating, Redroot pigweed (redroot pigweed; [6]): 100
Plant response rating, Redroot pigweed (redroot pigweed; Rate 250 g/ha, 0 to 100 scale): 100
Plant response rating, C. ragweed (common ragweed; [4]): 0
Plant response rating, C. ragweed (common ragweed; [1]): 0
Plant response rating, C. ragweed (common ragweed; [2]): 0
Plant response rating, C. ragweed (common ragweed; [3]): 85
Plant response rating, C. ragweed (common ragweed; Rate 250 g/ha): 100
Plant response rating, C. ragweed (common ragweed; Rate 500 g/ha): 100
Plant response rating, Guineagrass (guineagrass; [4]): 65
Plant response rating, Guineagrass (guineagrass; [1]): 75
Plant response rating, Guineagrass (guineagrass; [2]): 100
Plant response rating, Guineagrass (guineagrass; [3]): 100
Plant response rating, Guineagrass (guineagrass; Rate 250 g/ha): 100
Plant response rating, Guineagrass (guineagrass; Rate 500 g/ha): 100
Plant response rating Large crabgrass (large crabgrass; [4]): 85
Plant response rating Large crabgrass (large crabgrass; [1]): 98
Plant response rating Large crabgrass (large crabgrass; [2]): 100
Plant response rating Large crabgrass (large crabgrass; [3]): 100
Plant response rating Large crabgrass (large crabgrass; Rate 250 g/ha): 100
Plant response rating Large crabgrass (large crabgrass; Rate 500 g/ha): 100
Plant response rating, Tall Mallow (tall mallow; [4]): 0
Plant response rating, Tall Mallow (tall mallow; [1]): 0
Tall Mallow plant response rating (tall mallow; [2]): 0
Tall Mallow plant response rating (tall mallow; [3]): 90
Plant response rating, Tall Mallow (tall mallow; Rate 250 g/ha): 98
Plant response rating, Tall Mallow (tall mallow; Rate 500 g/ha): 100
Plant response rating, Itchgrass (itchgrass; [4]): 40
Plant response rating, Itchgrass (itchgrass; [1]): 75
Plant response rating, Itchgrass (itchgrass; [2]): 85
Plant response rating, Itchgrass (itchgrass; [3]): 98
Plant response rating, Itchgrass (itchgrass; Rate 250 g/ha): 100
Plant response rating, Itchgrass (itchgrass; Rate 500 g/ha): 100
Plant response rating, Alexandergrass (Alexandergrass; [4]): 0
Plant response rating, Alexandergrass (Alexandergrass; [1]): 90
Plant response rating, Alexandergrass (Alexandergrass; [2]): 100
Plant response rating, Alexandergrass (Alexandergrass; [3]): 100
Plant response rating, Alexandergrass (Alexandergrass; Rate 250 g/ha): 100
Plant response rating, Alexandergrass (Alexandergrass; Rate 500 g/ha): 100
Plant response rating, Jointed goatgra (jointed goatgrass; [5]): 40
Plant response rating, Jointed goatgra (jointed goatgrass; [6]): 50
Plant response rating, Jointed goatgra (jointed goatgrass; Rate 250 g/ha, 0 to 100 scale): 50

CCn1c(=O)on(C(=O)N(c2ccc(F)cc2F)C(C)C)c1=O [Compound 116]
Plant response rating, Blk nightshade (black nightshade; [6]): 80
Plant response rating, Blk nightshade (black nightshade; Rate 250 g/ha, 0 to 100 scale): 90
Plant response rating, Blk nightshade (black nightshade; [7]): 100
Plant response rating, Redroot pigweed (redroot pigweed; [6]): 100
Plant response rating, Redroot pigweed (redroot pigweed; Rate 250 g/ha, 0 to 100 scale): 100
Plant response rating, Redroot pigweed (redroot pigweed; [7]): 100
Plant response rating, Jointed goatgra (jointed goatgrass; [6]): 30
Plant response rating, Jointed goatgra (jointed goatgrass; Rate 250 g/ha, 0 to 100 scale): 100
Plant response rating, Jointed goatgra (jointed goatgrass; [7]): 65

C=C(C)Cn1c(=O)on(C(=O)N(c2ccc(F)cc2)C(C)C)c1=O [Compound 139]
Plant response rating, Goosegrass (goosegrass; [2]): 98
Plant response rating, C. ragweed (common ragweed; [2]): 0
Plant response rating, Guineagrass (guineagrass; [2]): 65
Plant response rating Large crabgrass (large crabgrass; [2]): 90
Tall Mallow plant response rating (tall mallow; [2]): 20
Plant response rating, Itchgrass (itchgrass; [2]): 20
Plant response rating, Alexandergrass (Alexandergrass; [2]): 60
